Data as given in publication PMC11945486, “TAS1R2/TAS1R3 Single-Nucleotide Polymorphisms Affect Sweet Taste Receptor Activation by Sweeteners: The SWEET Project” (Nutrients, 2025).
Read-outs that look alike come from different tables or passages of the source. No end group written: not given here.

T1: human TAS1R2-WT/TAS1R3-L823F (Homo sapiens, UniProt Q7RTX0+Q8TE23, L823F)
T1 construct: expressed in transfected cells; host or cells: HEK293T stably expressing Gα16gust44
T1 sequence (Q8TE23 20-839): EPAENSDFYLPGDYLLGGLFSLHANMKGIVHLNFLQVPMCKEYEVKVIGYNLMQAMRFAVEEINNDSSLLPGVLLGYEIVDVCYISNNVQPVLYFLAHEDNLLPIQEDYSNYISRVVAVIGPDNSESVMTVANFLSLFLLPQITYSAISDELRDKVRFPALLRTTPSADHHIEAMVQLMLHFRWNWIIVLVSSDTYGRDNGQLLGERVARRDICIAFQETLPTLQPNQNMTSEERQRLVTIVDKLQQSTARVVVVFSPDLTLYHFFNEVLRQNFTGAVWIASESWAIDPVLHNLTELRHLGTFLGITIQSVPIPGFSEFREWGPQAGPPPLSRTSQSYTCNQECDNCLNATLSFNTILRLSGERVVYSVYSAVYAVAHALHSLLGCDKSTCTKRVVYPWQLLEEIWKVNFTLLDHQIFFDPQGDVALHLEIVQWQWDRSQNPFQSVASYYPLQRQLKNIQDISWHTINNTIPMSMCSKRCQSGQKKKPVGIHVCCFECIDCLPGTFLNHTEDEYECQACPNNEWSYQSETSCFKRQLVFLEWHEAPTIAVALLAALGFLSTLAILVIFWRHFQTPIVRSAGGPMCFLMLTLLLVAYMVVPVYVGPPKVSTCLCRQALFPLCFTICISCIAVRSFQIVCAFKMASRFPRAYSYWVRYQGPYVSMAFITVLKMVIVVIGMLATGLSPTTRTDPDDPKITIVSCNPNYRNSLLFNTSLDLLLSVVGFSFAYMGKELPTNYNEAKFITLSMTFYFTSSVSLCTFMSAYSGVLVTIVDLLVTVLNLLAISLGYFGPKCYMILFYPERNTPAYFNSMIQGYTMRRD
T1 sequence (Q7RTX0 21-852 L823F): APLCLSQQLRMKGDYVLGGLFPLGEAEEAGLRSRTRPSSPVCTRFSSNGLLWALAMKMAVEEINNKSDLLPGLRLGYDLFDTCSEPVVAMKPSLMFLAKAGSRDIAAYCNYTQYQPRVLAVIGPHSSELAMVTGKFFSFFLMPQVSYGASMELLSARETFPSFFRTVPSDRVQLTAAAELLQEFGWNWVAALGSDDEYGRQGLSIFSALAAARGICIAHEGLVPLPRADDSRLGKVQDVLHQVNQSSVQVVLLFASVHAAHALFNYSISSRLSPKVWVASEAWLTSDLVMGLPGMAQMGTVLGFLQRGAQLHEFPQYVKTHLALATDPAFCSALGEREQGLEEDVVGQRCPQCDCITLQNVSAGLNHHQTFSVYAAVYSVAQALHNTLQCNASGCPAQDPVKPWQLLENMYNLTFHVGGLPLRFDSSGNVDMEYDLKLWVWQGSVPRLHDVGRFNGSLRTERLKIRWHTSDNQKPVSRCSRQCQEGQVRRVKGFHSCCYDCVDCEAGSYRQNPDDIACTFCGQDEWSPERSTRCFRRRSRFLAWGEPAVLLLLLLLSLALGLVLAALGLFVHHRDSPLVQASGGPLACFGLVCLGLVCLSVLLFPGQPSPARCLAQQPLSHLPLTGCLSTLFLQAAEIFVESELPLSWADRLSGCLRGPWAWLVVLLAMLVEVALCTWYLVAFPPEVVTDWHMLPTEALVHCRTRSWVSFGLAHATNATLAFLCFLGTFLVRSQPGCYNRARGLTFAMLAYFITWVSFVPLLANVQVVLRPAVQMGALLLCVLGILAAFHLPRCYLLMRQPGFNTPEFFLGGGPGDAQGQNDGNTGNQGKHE

B1: thaumatin (protein)
chain: ATFEIVNRCSYTVWAAASKGDAALDAGGRQLNSGESWTINVEPGTKGGKIWARTDCYFDDSGSGICKTGDCGGLLRCKRFGRPPTTLAEFSLNQYGKDYIDISNIKGFNVPMDFSPTTRGCRGVRCAADIVGQCPAKLKAPGGGCNDACTVFQTSEYCCTTGKCGPTEYSRFFKRLCPDAFSYVLDKPTTVTCPGSSNYRVTFCPTA
modifications: Eight disulfides
notes: sweet-tasting plant protein, E957

Target: T1, human TAS1R2-WT/TAS1R3-L823F
Assay: Calcium mobilisation assay, TAS1R2-WT with TAS1R3 variant L823F
Assay type: cell-based
Conditions: for Max ΔF/F0: maximal signal amplitude
Description: The coding sequences for TAS1R2 and TAS1R3 were commercially synthesised, and the human codon was optimised for expression in human cells. The coding sequences of human TAS1R2 and TAS1R3 were subcloned and inserted into the mammalian expression vectors pcDNA6/myc-HisA and pcDNA4/myc-HisA (Invitrogen; Thermo Fisher Scientific; Illkirch, France) between the EcoRI and NotI restriction sites, generating the plasmids pcDNA6-TAS1R2 and pcDNA4-TAS1R3, respectively. To increase protein expression in mammalian cells, an upstream start codon was used, which was a sequence called MAX, corresponding to the QBI SP163 element also described in pcDNA4-HisMax (Invitrogen; Thermo Fisher Scientific; Illkirch, France). To measure the expression level of the receptor by immunohistochemistry, we used the FLAG sequence ([…]) in the C-terminal position, which encodes the FLAG tag epitope. SNP variants of TAS1R2 and TAS1R3 were constructed based on […], respectively, using site-directed mutagenesis (Genewiz; Leipzig, Germany).
The HEK293T cells were kindly provided by Jay P. Slack (Givaudan Flavors Corporation; Cincinnati, OH, USA). HEK293T cells stably transfected with Gα16gust44 [43, 67] were seeded in poly-D-lysine-coated clear-bottom black 96-well plates (0.35 × 10^5 cells/well) in high-glucose DMEM supplemented with 2 mM GlutaMAX, 10% dialysed foetal bovine serum with penicillin/streptomycin and G418 (400 μg/mL) at 37 °C and 6.3% CO2 in a humidified atmosphere as previously reported. […] As a negative control, HEK293T cells were mock-transfected with the empty expression vector. After a further 24 h of incubation, the HEK293T cells were washed with C1 buffer (130 mM NaCl, 5 mM KCl, 10 mM HEPES pH 7.4 and 2 mM CaCl2). The 96-well plates containing the cells were then stimulated with sweet-tasting compounds. […] Different concentration ranges were tested depending on the sweet compound injected. The Ca^2+ changes were expressed as fractional changes in fluorescent light intensity: ΔF/F = (F − F0)/F0, where F was the fluorescent light intensity at each point, and F0 was the value of emitted fluorescent light prior to stimulus application. To calculate dose–response relationships, the changes in fluorescence upon stimulus application were averaged, mock-subtracted and baseline-corrected. The dose–response data obtained were adjusted using a 4-parameter logistic equation. The half-maximal effective concentrations (EC50 values) and maximal signal amplitudes were calculated using SigmaPlot software (version 15.0) (Systat Software; San Jose, CA, USA).
For in vitro calcium mobilisation assay performed on hTAS1R2-SNPs, hTAS1R3-SNPs and mTAS1R3-I60T, 6 to 7 concentrations were tested for each sweet compound, plus buffer alone. All concentration–receptor combinations were measured in duplicate, and each experiment was repeated at least 4 times (8 wells/concentration). Results were expressed for each concentration as ΔF/F mean ± SEM and represented as dose–response curves.

Molecule	R1 = Variant EC50/WT EC50	Max ΔF/F0	EC50 (read-out: EC50)	EC50 (brazzein)
CC1=CC(=O)NS(=O)(=O)O1 [Acesulfame K, acesulfame K]	0.6	0.33 ± 0.01	376 ± 34 µM	
O=S(=O)(O)NC1CCCCC1 [Cyclamate, cyclamate]			1370 ± 34 µM	
C[C@H](CC[C@@H](O[C@@H]1O[C@H](CO[C@@H]2O[C@H](CO)[C@@H](O)[C@H](O)[C@H]2O)[C@@H](O)[C@H](O)[C@H]1O[C@@H]1O[C@H](CO)[C@@H](O)[C@H](O)[C@H]1O)C(C)(C)O)[C@H]1CC[C@@]2(C)[C@@H]3CC=C4[C@@H](CC[C@H](O[C@@H]5O[C@H](CO[C@@H]6O[C@H](CO)[C@@H](O)[C@H](O)[C@H]6O)[C@@H](O)[C@H](O)[C@H]5O)C4(C)C)[C@]3(C)[C@H](O)C[C@]12C [Mogroside V, mogroside V]	0.7	1.18 ± 0.04	22 ± 1.8 µM	
COc1ccc(CCC(=O)c2c(O)cc(O[C@@H]3O[C@H](CO)[C@@H](O)[C@H](O)[C@H]3O[C@@H]3O[C@@H](C)[C@H](O)[C@@H](O)[C@H]3O)cc2O)cc1O [NHDC, neohesperidin dihydrochalcone]	0.9	1.00 ± 0.01	43.1 ± 14.7 µM	
COC(=O)[C@H](Cc1ccccc1)NC(=O)[C@H](CC(=O)O)NCCC(C)(C)C [Neotame]	0.9	0.76 ± 0.01	1.1 ± 0.06 µM	
C=C(C)[C@@H]1CC=C(/C=N/O)CC1 [Perillartine, perillartine]	0.7	1.39 ± 0.15	10 ± 3.1 µM	
C=C1C[C@@]23CC[C@H]4[C@@](C)(CCC[C@@]4(C)C(=O)O[C@@H]4O[C@H](CO)[C@@H](O)[C@H](O[C@@H]5O[C@H](CO)[C@@H](O)[C@H](O)[C@H]5O)[C@H]4O[C@@H]4O[C@H](CO)[C@@H](O)[C@H](O)[C@H]4O)[C@@H]2CC[C@]1(O[C@@H]1O[C@H](CO)[C@@H](O)[C@H](O[C@@H]2O[C@H](CO)[C@@H](O)[C@H](O)[C@H]2O)[C@H]1O[C@@H]1O[C@H](CO)[C@@H](O)[C@H](O)[C@H]1O)C3 [Rebaudioside M, rebaudioside M]	0.8	1.35 ± 0.09	33.2 ± 5.4 µM	
OC[C@H]1O[C@H](O[C@]2(CCl)O[C@H](CCl)[C@@H](O)[C@@H]2O)[C@H](O)[C@@H](O)[C@H]1Cl [Sucralose]	1.2	0.84 ± 0.02	134 ± 8 µM	
brazzein (QDKCKKVYENYPVSKCQLANQCNYDCKLDKHARSGECFYDEKRNLQCICDYCEY; ends and bridges not checked; cysteine pairing not given here; UniProt P56552 1-54, looked up) [sweet-tasting protein obtained by recombinant production using the yeast Pichia pastoris]	0.7	0.98 ± 0.05		78.9 ± 14.2 µg/mL
thaumatin	0.7	0.71 ± 0.04		
B1			7.4 ± 1.1 µM	
